Source: ChEMBL document CHEMBL2331082, “Cinnamic acid derivatives as inhibitors for chorismatases and isochorismatases” (Bioorg Med Chem Lett, 2013)

Experiments:
[1] = target: T1, Chorismatase (Streptomyces hygroscopicus subsp. ascomyceticus, UniProt Q9KID9); assay: Inhibition of Streptomyces hygroscopicus subsp. ascomyceticus chorismatase FkbO expressed in Escherichia coli BL21(DE3) using chorismate as substrate after 5 mins by LDH-coupled spectrophotometric assay
T1 sequence (Q9KID9 whole entry): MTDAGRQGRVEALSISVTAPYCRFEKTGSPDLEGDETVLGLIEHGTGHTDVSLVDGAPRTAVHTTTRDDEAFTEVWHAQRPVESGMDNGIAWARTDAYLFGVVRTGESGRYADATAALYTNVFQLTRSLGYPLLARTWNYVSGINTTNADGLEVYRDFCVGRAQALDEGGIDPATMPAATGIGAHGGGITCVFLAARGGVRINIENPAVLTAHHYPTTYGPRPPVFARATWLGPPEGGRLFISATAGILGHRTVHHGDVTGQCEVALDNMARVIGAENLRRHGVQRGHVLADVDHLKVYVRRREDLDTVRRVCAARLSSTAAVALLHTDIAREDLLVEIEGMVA

[2] = Inhibition of Escherichia coli EntB expressed in Escherichia coli BL21(DE3) using chorismate as substrate after 5 mins by LDH-coupled spectrophotometric assay
[3] = Inhibition of Streptomyces hygroscopicus hyg5 expressed in Escherichia coli BL21(DE3) using chorismate as substrate after 5 mins by LDH-coupled spectrophotometric assay
[4] = target: T1, Chorismatase; assay: Competitive inhibition of Streptomyces hygroscopicus subsp. ascomyceticus chorismatase FkbO expressed in Escherichia coli BL21(DE3) using chorismate as substrate
[5] = Competitive inhibition of Escherichia coli EntB expressed in Escherichia coli BL21(DE3) using chorismate as substrate

| IC50 [1] | IC50 [2] | IC50 [3] | Ki [4] | SMILES | Ki [5] |
| --- | --- | --- | --- | --- | --- |
| 1090 µM | 472 µM | 1250 µM | 1020 µM | O=C(O)CCc1cccc(C(=O)O)c1 | 282 µM |
| 45000 µM | 209 µM | 68500 µM | 19600 µM | O=C(O)/C=C/c1cccc(C(=O)O)c1 | 122 µM |
